According to patent US9649332B2, “Poly (β-hydroxy short-medium chain fatty acid)” (EARTHUS, INC., priority 2003, dated 2017):

Tested on: Cell line HT-29 derived from colon tumor
Experiment: Growth inhibition against colon tumor cell line (MTT method)
Type: cell-based
Conditions: 72 hours, control 0.337 ± 0.055
Procedure: Cell line HT-29 derived from colon tumor was inoculated into McCoy's SA medium supplemented with 10% fetal calf serum comprising penicillin 50 U/ml, streptomycin 50 μg/ml and HEPES 10 mM on 96-well cell culture plate (7,500 cells/well). The cells were pre-incubated in an atmosphere of 95% air and 5% carbon dioxide at 37° C. for 24 hours. […] The plate was incubated further 72 hours. The cell number in the each well was determined by the MTT method based on the difference of the optical density.

SMILES | cell number by MTT method (optical density) (0.1 mM) | cell number by MTT method (optical density) (0.5 mM) | cell number by MTT method (optical density) (1 mM) | cell number by MTT method (optical density) (2 mM)
C[C@H](CC(=O)O)OC(=O)C[C@@H](C)O [R-dimer, dimer of R(−)-β-hydroxybutyric acid] | 0.288 ± 0.019 | 0.251 ± 0.029 | 0.248 ± 0.029 | 0.237 ± 0.019
C[C@@H](O)CC(=O)O [R-β-hydroxy-butyric acid, R(−)-β-hydroxy-butyric acid] | 0.271 ± 0.028 | 0.264 ± 0.019 | 0.272 ± 0.015 | 0.284 ± 0.023
C[C@H](O)CC(=O)O [S-β-hydroxy-butyric acid, S(+)-β-hydroxybutyric acid] | 0.257 ± 0.035 | 0.255 ± 0.013 | 0.281 ± 0.017 | 0.293 ± 0.022
CCCC(=O)O [butyric acid, reference compound] | 0.234 ± 0.012 | 0.243 ± 0.009 | 0.250 ± 0.010 | 0.200 ± 0.009
